The values below are quoted from earlier work in patent US7183291B2 (Council of Scientific and Industrial Research, priority 1999, dated 2007).

The subject of series [1] is P. cynomolgi B. infection. As to conditions: 3.16 mg/kg×3 doses; monkeys; cited from earlier work.
Series [2] relates to P. cynomolgi B. infection. As to conditions: 1 mg/kg×7 days; cited from earlier work.
The subject of series [3] is rodent malaria. As to conditions: in vivo; cited from earlier work.
Series [4] has as its system rodent malaria. The note with it: in vivo; cited from earlier work. The source holds these as a separate data set.
Series [5] relates to rodent malaria. The note with it: given directly to the insect; cited from earlier work.
In a further series the test system is erythrocytes. The note with it: cited from earlier work.
The subject of series [6] is rodent malaria. As to conditions: in vivo; cited from earlier work. The source holds these as a separate data set.

On to `COc1cc(NC(C)CCCNC2=C(C(C)=O)CCO2)c2ncccc2c1` (stereo not drawn) [N^1-(3-acetyl-4,5-dihydro-2-furanyl)-N^4-(6-methoxy-8-quinolinyl)-1,4-pentanediamine], for which the causal prophylactic activity entry in series [1] is listed as “causal prophylactic activity”. Also, in series [2], the “anti-relapse (radical curative) activity” value is on record as “exerts anti-relapse (radical curative) activity”.
On to `Nc1cc(O)c(O)c2cccnc12` [formula (11), 5,6-dihydroxy-8-aminoquinoline], for which the blood schizontocidal activity entry with rodent malaria [3] was “no significant activity”. In addition, the “tissue schizontoidal effect relative to primaquine” value in the series on rodent malaria [4] is “two to three times more active than primaquine”. In addition, the direct sporontocidal activity result in the series on rodent malaria [5] is listed as “directly sporontocidal”. For the same compound, the “oxidation of oxyhemoglobin (HbO2) to methemoglobin (Met Hb) and of reduced glutathione (GSH)” value with erythrocytes is “cause oxidation”.
For Desmethyl primaquine [formula (5)], the blood schizontocidal activity result in the series with rodent malaria [3] was “little”. Further, in the series with rodent malaria [6], the gametocytocidal activity result was “inactive”.
For `COc1cc(NC(C)CCCN)c2ncccc2c1O` (stereo not drawn) [formula (3), 5-hydroxy-6-methoxy-8-(4-amino-1-methylbutylamino) quinoline], the blood schizontocidal activity result with rodent malaria [3] is recorded as “highly active”. The gametocytocidal activity entry in the series on rodent malaria [6] was “inactive”. For the same compound, the “oxidation of oxyhemoglobin (HbO2) to methemoglobin (Met Hb) and of reduced glutathione (GSH)” value with erythrocytes is on record as “cause oxidation”.
In the case of `COC1(O)C=C(NC(C)CCCN)c2ncccc2C1O` (stereo not drawn) [formula (4), 5,6-dihydroxy-6-methoxy-8-(4-amino-1-methylbutylamino) quinoline], in the series with rodent malaria [3], the blood schizontocidal activity entry is on record as “highly active”. Also, the gametocytocidal activity result in the series on rodent malaria [6] is “only a slight gametocytocidal activity”.
For `COc1cc(N)c2ncccc2c1` [formula (10), 6-methoxy-8-aminoquinoline], in the series on rodent malaria [3], the blood schizontocidal activity entry is listed as “no significant activity”. In the series with rodent malaria [4], the “tissue schizontoidal effect relative to primaquine” value was “two to three times more active than primaquine”. The direct sporontocidal activity entry with rodent malaria [5] is listed as “directly sporontocidal”.
For the compound `COc1cc(NC(C)CCC(=O)O)c2ncccc2c1` (stereo not drawn) [formula (12), 8-(3-carboxy-1-methylpropylamino)-6-methoxy quinoline], the gametocytocidal activity entry with rodent malaria [6] is “inactive”. The “methemoglobin formation in vitro” value with erythrocytes (in vitro) is on record as “does not cause methemoglobin formation”.
